Data: publication PMC7922564, “Molecular Insights into an Antibiotic Enhancer Action of New Morpholine-Containing 5-Arylideneimidazolones in the Fight against MDR Bacteria” (International Journal of Molecular Sciences, 2021)
Where “and” joins values, the source holds several entries; their conditions need not be identical. Identical values can stand only once.

Experiments:
S. aureus COL = assay: MIC of compounds, S. aureus COL; type: cell-based; settings: Staphylococcus aureus; COL (MRSA)
Protocol: (§1) Compounds 14–16 were tested further for their adjuvant-like effect with a set of ten additional S. aureus isolates. Firstly, MIC values of the molecules were evaluated in two clinical MSSA isolates (MM-O058, MM-N072), seven MRSA (USA300 LAC, 5328, LG-N017, MM-O021, R45-CC45, R46-CC22, COL) and one VISA strain (Mu50). Detailed results are presented in the Supplementary section (Table S3).
(§2) Determination of MIC values, i.e., intrinsic antibacterial activity, of products and antibiotics (oxacillin, ampicillin, vancomycin, ciprofloxacin, and erythromycin) in the presence and absence of compounds tested was conducted by the use of a standard 2-fold microdilution method in cation-adjusted Mueller Hinton broth following the Clinical and Laboratory Standards Institute (CLSI) guidelines. The MIC values were detected using an Infinite M200 pro Tecan microplate reader (Tecan® France, SA-Lyon, France). MIC determinations were conducted in 96-well microtiter plates and repeated 3–4 times.
(§3) Initially, MICs of a series of imidazolone derivatives were assessed against susceptible (reference) and MDR strains of staphylococci. Next, MIC values of the aforementioned antibiotics were determined in the absence and presence of imidazolone derivatives to assess the chemosensitizing effect of these compounds. […] 5-arylideneimidazolones and 5-arylidenethiazolones, which precipitated after addition to bacterial suspension in MH II medium, were tested at the highest concentrations at which precipitation was not observed. […] Antibacterial activity of compounds and antibiotics ampicillin, vancomycin, ciprofloxacin, and erythromycin was recorded as the lowest concentration of molecules able to inhibit bacterial growth after 18 h incubation at 37 °C. […] The results are presented as activity gain (A) parameter which was calculated as ratio of MIC of a certain antibiotic (MICAnt) to its MICAnt+Comp, observed in combination with a tested compound (7, 12–16, 19, or 20; Equation (1)). […]

S. aureus Mu50 = assay: MIC of compounds, S. aureus Mu50; type: cell-based; settings: Staphylococcus aureus; Mu50 (VISA)
Protocol: as §1, with “S3). […]” for “S3).”
Initially, MICs of a series of imidazolone derivatives were assessed against susceptible (reference) and MDR strains of staphylococci. Next, MIC values of the aforementioned antibiotics were determined in the absence and presence of imidazolone derivatives to assess the chemosensitizing effect of these compounds. […] Antibacterial activity of compounds and antibiotics ampicillin, vancomycin, ciprofloxacin, and erythromycin was recorded as the lowest concentration of molecules able to inhibit bacterial growth after 18 h incubation at 37 °C. […] The results are presented as activity gain (A) parameter which was calculated as ratio of MIC of a certain antibiotic (MICAnt) to its MICAnt+Comp, observed in combination with a tested compound (7, 12–16, 19, or 20; Equation (1)). […]

S. aureus R45-CC45 = assay: MIC reduction assay (antibiotic adjuvant), S. aureus R45-CC45; type: cell-based, Staphylococcus aureus; settings: ampicillin; for A (activity gain): range over repetitions
Description: The adjuvant properties of compounds 14–16 in S. aureus clinical isolates were next tested in combination with oxacillin and the penicillinase-susceptible β-lactam antibiotic, ampicillin. The second β-lactam antibiotic was chosen based on its vulnerability to enzymatic hydrolysis, another important resistance mechanism in S. aureus against penicillin. Therefore, the results of the MIC reduction assay obtained on the activity of arylideneimidazolones combined with oxacillin and ampicillin, respectively, might provide further insights into the possible mechanism of action of the compounds. Complete results are presented in Supplementary (Tables S4 and S5), while condensed in Figure 6, in the case of desired activity noted. […] One possible explanation for the lack of adjuvant activity of compounds in some of the strains selected for this study might be that these strains express PBP2a only when induced by the antibiotic, while others, for which potentiating activity of compounds was observed, produce this protein in high levels straight away.
as §2, §3

[1] = system: K. aerogenes Ea-294, Ea-308 (devoid of AcrAB); assay: MIC of compounds, K. aerogenes Ea-294, Ea-308; type: cell-based; settings: Klebsiella aerogenes, read-out: Minimal Inhibitory Concentration (MIC)
Description: (§4) A subset of compounds, namely 7, 12–16, 19, 20, was also examined for the potential to increase the effectiveness of the antibiotics chloramphenicol, erythromycin, doxycycline, and the fluoroquinolone antibiotic norfloxacin, which all are substrates for AcrAB-TolC in K. aerogenes. In addition to strain Ea-289, the adjuvant-like effect of the compounds was investigated in strain CM-64, which also overexpresses the AcrAB-TolC efflux pump, although it has no changes in porin content, and in the Ea-289 derivatives, i.e., Ea-294 and Ea-308, which are devoid of AcrAB (Table S17, Supplementary).
as §2
(§5) MIC values of 5-arylideneimidazolone derivatives were determined following CLSI recommendations as in the methods described for S. aureus (Section 3.3.1).

[2] = system: K. aerogenes CM-64 (overexpression of AcrAB-TolC); assay: MIC of compounds, K. aerogenes CM-64; type: cell-based; settings: Klebsiella aerogenes, read-out: Minimal Inhibitory Concentration (MIC)
Description: as §4, §2, §5

[3] = Water solubility (UV spectroscopy); type: physicochemical
Description: Six representatives of 5-arylideneimidazolones (9–12, 15, 19) were chosen for the determination of water solubility. UV spectroscopy was used for the estimation of concentrations of compounds according to the method described earlier. Acquired UV absorbance, calculated means, and standard deviations for tested compounds are presented in Supplementary Table S18. Solubility results, presented in Table 6, point out that compounds from the same group (A or B, Table 1 and Table 2) with the two-ring aromatic moiety are more soluble than compounds with the fluorene motive (Group A: 9, 10, 11 vs. 12; Group B: 15 vs. 19). […] The most soluble of tested compounds was compound 15, which could be dissolved in water at a concentration of up to 205.502 mM/L.
Water solubility was obtained using UV spectroscopy method. Absorbance of tested solutions of compounds 9-12, 15, and 19, respectively in suitable dilution, in three repetitions as well as calculated arithmetic means, solubility and standard deviations are presented in Table S18. the solubility results […]
Table S18. Results of absorbance used for estimation of water solubility of tested compounds (9-12, 15, 19).
Abbreviations: A1, A2,and A3, UV absorbance in first, second, and third repetition; Amean, arithmetic mean of absorbance from three repetitions; s, standard deviation for absorbance; S, water solubility; SD – standard deviation for solubility. […]

CYP3A4 = CYP3A4 (Homo sapiens, UniProt P08684); assay: Luminescent CYP3A4 P450-Glo assay
Protocol: The luminescent CYP3A4 P450-Glo™ assay was carried out according to a protocol described previously (Promega, Madison, WI, USA). […] Performance of enzymatic reaction was carried out in white polystyrene, flat-bottom Nunc™ MicroWell™ 96-Well Microplate (Thermo Scientific Waltham, MA, USA) and the result was measured with a microplate reader EnSpire in luminescence mode (PerkinElmer, Waltham, MA USA). IC50 values were calculated using GraphPad Prism™ software (version 5.01, San Diego, CA, USA). Compounds 15 and 19 were tested at concentrations from 0.01 μM to 25 μM.

Chain of CYP3A4 (P08684 whole entry): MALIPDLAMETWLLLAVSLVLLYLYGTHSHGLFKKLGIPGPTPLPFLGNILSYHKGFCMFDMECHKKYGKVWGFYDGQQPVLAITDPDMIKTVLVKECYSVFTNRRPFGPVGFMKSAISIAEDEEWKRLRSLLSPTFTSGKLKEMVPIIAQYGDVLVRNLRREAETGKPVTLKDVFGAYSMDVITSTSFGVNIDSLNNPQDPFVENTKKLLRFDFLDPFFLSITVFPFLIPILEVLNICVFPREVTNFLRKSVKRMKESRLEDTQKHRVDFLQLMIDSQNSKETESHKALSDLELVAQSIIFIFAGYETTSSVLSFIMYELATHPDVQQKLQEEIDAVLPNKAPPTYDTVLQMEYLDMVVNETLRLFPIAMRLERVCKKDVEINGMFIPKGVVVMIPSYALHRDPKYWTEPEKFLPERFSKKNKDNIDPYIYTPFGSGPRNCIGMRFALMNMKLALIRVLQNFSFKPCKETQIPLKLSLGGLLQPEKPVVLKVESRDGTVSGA

Structure (SMILES): NC1=N/C(=C\c2ccc(-c3ccccc3)cc2)C(=O)N1CCN1CCOCC1 [Compound 14]
- MIC (S. aureus COL): ≥ 500 µM
- MIC (S. aureus Mu50): ≥ 500 µM
- A (activity gain) (S. aureus R45-CC45): 2-4
- MIC [1]: 2000 µM
- MIC [2]: > 2000 µM

Structure (SMILES): NC1=N/C(=C\c2ccc(-c3ccccc3)cc2)C(=O)N1CCCN1CCOCC1 [Compound 15]
- MIC (S. aureus COL): 250 µM
- MIC (S. aureus Mu50): 250 µM
- A (AMP), gain of activity, arithmetic mean (S. aureus R45-CC45; arithmetic mean of 3-4 repetitions): 6
- A (activity gain) (S. aureus R45-CC45): 4-8
- MIC [1]: 125 µM
- MIC [2]: > 2000 µM
- solubility [3]: 87600 µg/mL and 206000 µM
- IC50 (CYP3A4): > 25 µM
- inhibition at 25 µM (CYP3A4; human): < 50%

Structure (SMILES): NC1=N/C(=C\c2cccc(Oc3ccccc3)c2)C(=O)N1CCCN1CCOCC1 [Compound 16]
- MIC (S. aureus COL): 250 µM
- A (activity gain) (S. aureus R45-CC45): 1
- MIC [1]: 500 µM
- MIC [2]: > 2000 µM

Structure (SMILES): NC1=N/C(=C\c2ccc3c(c2)Cc2ccccc2-3)C(=O)N1CCCN1CCOCC1 [Compound 19]
- MIC [1]: 250 µM
- MIC [2]: > 2000 µM
- solubility [3]: 8530 µg/mL and 19500 µM
- IC50 (CYP3A4): 24.9 µM
